Results taken from ChEMBL document CHEMBL4387750, “Backbone modifications in peptidic inhibitors of flaviviral proteases” (Bioorg Med Chem Lett, 2019).
Where a SMILES comes first, the peptide text is derived from it. [ ]: non-standard residue; d: D form. The star is where a group is joined. dPhg = N[C@@H](C(=O)O)c1ccccc1; Phg = N[C@H](C(=O)O)c1ccccc1; Bz = O=C(c1ccccc1)*

Tests used:
[1] = biological target: Genome polyprotein (dengue virus type 2) (UniProt P29990); assay: Inhibition of Dengue virus serotype 2 NS2B-NS3 protease at 50 uM preincubated with protein for 15 mins followed by Abz-Nle-Lys-Arg-Arg-Ser-3-(NO2)Tyr substrate addition and measured by continuous fluorometric analysis relative to control
Genome polyprotein [2] = biological target: Genome polyprotein (dengue virus type 2, UniProt P29990); assay: Inhibition of Dengue virus serotype 2 NS2B-NS3 protease preincubated with protein for 15 mins followed by Abz-Nle-Lys-Arg-Arg-Ser-3-(NO2)Tyr substrate addition and measured by continuous fluorometric analysis
[3] = biological target: Prothrombin (Homo sapiens) (UniProt P00734); assay: Inhibition of human thrombin at 25 uM preincubated with protein for 15 mins followed by boc-Val-Pro-Arg-AMC substrate addition and measured after 10 mins by continuous fluorometric analysis relative to control
Trypsin [4] = biological target: T1, Trypsin (Homo sapiens, UniProt P07477+P07478+P35030); assay: Inhibition of trypsin (unknown origin) at 50 uM preincubated with protein for 15 mins followed by boc-Val-Pro-Arg-AMC substrate addition and measured by continuous fluorometric analysis relative to control; format: protein assay
[5] = biological target: Genome polyprotein (West Nile virus) (UniProt P06935); assay: Inhibition of West Nile virus NS2B-NS3 protease preincubated with protein for 15 mins followed by Abz-Gly-Leu-Lys-Arg-Gly-Gly-3-(NO2)-Tyr substrate addition and measured by continuous fluorometric analysis relative to control; set-up: concentration or dose not given beside the values
Genome polyprotein [6] = biological target: Genome polyprotein (West Nile virus, UniProt P06935); assay: Inhibition of West Nile virus NS2B-NS3 protease preincubated with protein for 15 mins followed by Abz-Gly-Leu-Lys-Arg-Gly-Gly-3-(NO2)-Tyr substrate addition and measured by continuous fluorometric analysis
[7] = Metabolic stability in Sprague-Dawley rat liver microsomes assessed as compound remaining after 120 mins by HPLC and UV analysis; format: ADME, Microsome; conditions: read-out: Stability
[8] = Metabolic stability assessed as alpha-chymotrypsin (unknown origin)-mediated drug degradation by measuring half life in pH 7.4 phosphate buffer incubated up to 60 mins at 37 degC by HPLC and UV analysis; format: ADME; conditions: human; for Stability: buffer, pH 7.4, 1 h
Trypsin [9] = biological target: T1, Trypsin; assay: Metabolic stability assessed as trypsin (unknown origin)-mediated drug degradation by measuring half life in pH 7.5 Tris buffer incubated up to 60 mins at 37 degC by HPLC and UV analysis; format: ADME, protein assay; conditions: pH 7.5, 1 h
[10] = Metabolic stability in Sprague-Dawley rat liver microsomes assessed as compound degradation by measuring half life incubated for 120 mins by HPLC and UV analysis; format: ADME, Microsome; conditions: for Stability: microsomes, 2 h

Sequence of Genome polyprotein (West Nile virus) (P06935 whole entry): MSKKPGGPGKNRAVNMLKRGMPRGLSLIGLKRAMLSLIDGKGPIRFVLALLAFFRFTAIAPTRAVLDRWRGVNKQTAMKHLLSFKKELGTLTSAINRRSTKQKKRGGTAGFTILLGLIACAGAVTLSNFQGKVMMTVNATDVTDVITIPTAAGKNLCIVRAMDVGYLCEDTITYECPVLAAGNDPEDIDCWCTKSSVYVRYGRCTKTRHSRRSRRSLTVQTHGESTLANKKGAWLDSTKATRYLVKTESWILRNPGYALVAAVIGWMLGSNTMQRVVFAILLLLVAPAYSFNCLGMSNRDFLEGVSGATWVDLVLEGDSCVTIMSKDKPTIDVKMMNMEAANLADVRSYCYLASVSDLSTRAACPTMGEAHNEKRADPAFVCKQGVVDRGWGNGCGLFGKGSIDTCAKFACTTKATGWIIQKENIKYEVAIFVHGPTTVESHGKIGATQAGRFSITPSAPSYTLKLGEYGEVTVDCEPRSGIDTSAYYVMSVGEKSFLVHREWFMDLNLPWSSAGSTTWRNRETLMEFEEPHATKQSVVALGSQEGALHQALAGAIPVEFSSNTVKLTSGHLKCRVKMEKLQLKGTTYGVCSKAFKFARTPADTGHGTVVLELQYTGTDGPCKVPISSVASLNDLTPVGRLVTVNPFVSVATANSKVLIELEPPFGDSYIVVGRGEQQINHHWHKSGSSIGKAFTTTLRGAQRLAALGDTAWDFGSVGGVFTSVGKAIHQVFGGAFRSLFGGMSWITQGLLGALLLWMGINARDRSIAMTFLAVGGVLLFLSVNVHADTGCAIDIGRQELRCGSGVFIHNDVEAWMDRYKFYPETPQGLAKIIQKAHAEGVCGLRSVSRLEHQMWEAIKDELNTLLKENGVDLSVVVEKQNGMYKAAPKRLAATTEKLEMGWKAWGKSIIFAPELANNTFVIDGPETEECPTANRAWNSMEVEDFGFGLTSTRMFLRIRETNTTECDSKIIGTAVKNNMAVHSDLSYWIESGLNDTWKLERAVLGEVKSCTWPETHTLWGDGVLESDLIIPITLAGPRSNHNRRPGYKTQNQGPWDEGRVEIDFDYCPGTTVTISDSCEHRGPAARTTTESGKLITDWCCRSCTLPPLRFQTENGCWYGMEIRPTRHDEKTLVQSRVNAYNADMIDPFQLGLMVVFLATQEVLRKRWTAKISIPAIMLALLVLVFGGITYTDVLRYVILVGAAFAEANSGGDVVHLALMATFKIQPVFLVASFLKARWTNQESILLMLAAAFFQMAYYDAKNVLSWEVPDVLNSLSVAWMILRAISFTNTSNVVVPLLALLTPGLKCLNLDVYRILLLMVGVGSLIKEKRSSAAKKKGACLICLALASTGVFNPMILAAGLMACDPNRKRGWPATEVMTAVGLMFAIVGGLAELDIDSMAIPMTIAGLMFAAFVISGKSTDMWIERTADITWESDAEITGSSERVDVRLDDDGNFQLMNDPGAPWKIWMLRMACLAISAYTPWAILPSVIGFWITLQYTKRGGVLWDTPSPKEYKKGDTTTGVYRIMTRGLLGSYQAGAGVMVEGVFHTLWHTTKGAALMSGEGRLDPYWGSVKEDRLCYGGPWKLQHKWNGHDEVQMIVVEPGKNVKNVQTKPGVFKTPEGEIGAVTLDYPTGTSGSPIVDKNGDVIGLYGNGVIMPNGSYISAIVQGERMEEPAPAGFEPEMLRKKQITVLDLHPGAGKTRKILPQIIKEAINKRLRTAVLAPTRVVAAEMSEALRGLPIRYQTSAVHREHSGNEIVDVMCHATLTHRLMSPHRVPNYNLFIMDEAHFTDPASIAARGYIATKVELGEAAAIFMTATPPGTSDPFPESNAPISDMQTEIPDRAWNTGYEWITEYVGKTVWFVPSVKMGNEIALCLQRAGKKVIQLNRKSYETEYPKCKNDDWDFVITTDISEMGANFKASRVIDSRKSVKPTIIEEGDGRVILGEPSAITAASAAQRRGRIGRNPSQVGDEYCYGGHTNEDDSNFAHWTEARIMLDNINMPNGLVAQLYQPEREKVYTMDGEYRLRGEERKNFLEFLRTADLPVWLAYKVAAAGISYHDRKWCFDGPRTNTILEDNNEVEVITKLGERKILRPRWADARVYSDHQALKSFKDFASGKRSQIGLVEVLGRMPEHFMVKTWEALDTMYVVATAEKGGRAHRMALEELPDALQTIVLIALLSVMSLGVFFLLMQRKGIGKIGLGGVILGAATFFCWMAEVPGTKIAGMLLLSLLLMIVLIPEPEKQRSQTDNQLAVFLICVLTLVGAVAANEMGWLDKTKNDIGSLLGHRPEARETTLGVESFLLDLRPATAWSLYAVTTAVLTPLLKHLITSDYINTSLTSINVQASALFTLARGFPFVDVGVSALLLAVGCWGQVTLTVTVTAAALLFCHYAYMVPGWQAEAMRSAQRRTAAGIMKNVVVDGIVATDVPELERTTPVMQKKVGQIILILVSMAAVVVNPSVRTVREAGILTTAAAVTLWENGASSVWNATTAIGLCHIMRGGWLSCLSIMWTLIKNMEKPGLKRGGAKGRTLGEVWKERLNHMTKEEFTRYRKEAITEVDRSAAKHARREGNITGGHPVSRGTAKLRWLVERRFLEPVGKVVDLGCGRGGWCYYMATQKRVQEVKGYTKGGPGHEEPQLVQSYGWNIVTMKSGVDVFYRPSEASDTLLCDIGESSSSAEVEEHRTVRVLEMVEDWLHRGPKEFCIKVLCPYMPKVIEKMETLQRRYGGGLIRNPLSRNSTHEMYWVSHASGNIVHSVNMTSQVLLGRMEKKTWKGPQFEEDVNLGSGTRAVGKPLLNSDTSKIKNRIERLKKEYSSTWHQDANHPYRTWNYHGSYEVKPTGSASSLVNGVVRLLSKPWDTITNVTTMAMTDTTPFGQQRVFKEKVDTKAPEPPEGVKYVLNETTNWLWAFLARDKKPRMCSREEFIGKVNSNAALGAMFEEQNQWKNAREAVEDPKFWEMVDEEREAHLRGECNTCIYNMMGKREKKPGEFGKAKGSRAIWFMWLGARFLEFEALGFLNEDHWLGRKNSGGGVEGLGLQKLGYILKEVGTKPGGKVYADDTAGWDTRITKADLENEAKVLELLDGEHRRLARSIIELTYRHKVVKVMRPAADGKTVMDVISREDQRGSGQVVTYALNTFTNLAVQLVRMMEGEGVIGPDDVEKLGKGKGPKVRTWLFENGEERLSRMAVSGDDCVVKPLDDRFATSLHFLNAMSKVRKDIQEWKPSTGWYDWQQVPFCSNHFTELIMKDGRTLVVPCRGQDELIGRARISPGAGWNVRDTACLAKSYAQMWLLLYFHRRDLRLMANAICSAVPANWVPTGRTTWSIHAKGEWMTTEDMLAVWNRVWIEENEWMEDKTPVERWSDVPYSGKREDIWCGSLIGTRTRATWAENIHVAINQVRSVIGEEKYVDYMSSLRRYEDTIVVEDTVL
Sequence of Genome polyprotein (West Nile virus, UniProt P06935) (P06935 1371-1501 limits assumed): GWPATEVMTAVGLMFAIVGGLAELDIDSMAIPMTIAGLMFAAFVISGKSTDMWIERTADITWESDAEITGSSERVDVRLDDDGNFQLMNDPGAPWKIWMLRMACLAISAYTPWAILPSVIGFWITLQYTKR
Sequence of Genome polyprotein (West Nile virus, UniProt P06935) (P06935 1502-2120 limits assumed): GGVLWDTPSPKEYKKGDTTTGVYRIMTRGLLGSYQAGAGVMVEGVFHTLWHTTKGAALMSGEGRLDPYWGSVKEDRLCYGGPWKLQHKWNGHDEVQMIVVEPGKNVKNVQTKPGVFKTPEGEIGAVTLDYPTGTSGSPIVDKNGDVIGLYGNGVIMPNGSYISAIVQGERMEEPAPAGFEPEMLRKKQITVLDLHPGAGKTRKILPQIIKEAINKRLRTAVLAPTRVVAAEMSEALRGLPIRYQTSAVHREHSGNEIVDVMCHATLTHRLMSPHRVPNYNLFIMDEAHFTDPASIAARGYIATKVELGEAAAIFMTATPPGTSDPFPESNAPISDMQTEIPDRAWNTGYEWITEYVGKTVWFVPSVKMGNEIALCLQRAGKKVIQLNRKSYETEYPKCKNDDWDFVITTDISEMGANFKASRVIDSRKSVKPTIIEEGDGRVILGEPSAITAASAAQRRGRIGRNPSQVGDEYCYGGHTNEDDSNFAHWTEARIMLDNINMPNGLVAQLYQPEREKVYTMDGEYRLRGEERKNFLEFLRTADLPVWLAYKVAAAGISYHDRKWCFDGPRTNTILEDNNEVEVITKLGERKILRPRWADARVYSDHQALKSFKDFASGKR

Q: Which inhibition [1] does the source give for `N=C(N)NCCC[C@H](NC(=O)c1ccccc1)C(=O)N[C@@H](CCCCN)C(=O)N[C@H](C(N)=O)c1ccccc1` (Bz-Arg-Lys-[Phg]-NH2) here?
A: 95%

Q: And the IC50 (Genome polyprotein [2])?
A: 3.3 µM

Q: What about the inhibition [3] of the same compound?
A: < 5%

Q: What about the inhibition (Trypsin [4]) of the same compound?
A: < 5%

Q: Which inhibition [1] does the source give for `N=C(N)NCCC[C@H](NC(=O)c1ccccc1)C(=O)N(CCCCN)CC(=O)N[C@@H](C(N)=O)c1ccccc1` here?
A: < 5%

Q: What about the inhibition [5] of the same compound?
A: 18.4%

Q: And the inhibition [3]?
A: < 5%

Q: What about the inhibition (Trypsin [4]) of the same compound?
A: 10.6%

Q: Which inhibition [1] does the source give for `CN(C(=O)[C@H](CCCCN)NC(=O)[C@H](CCCNC(=N)N)NC(=O)c1ccccc1)[C@@H](C(N)=O)c1ccccc1` here?
A: 33%

Q: And the inhibition [5]?
A: 36.7%

Q: And the inhibition [3]?
A: < 5%

Q: What about the inhibition (Trypsin [4]) of the same compound?
A: < 5%

Q: For `CC(NC(=O)[C@H](CCCCN)NC(=O)[C@H](CCCNC(=N)N)NC(=O)c1ccccc1)(C(N)=O)c1ccccc1` (stereo partly drawn), which inhibition [1] is on record?
A: 97.8%

Q: And the IC50 (Genome polyprotein [2])?
A: 1.3 µM

Q: What about the inhibition [5] of the same compound?
A: 59.8%

Q: What about the IC50 (Genome polyprotein [6]) of the same compound?
A: 24.3 µM

Q: And the inhibition [3]?
A: 9.1%

Q: What about the inhibition (Trypsin [4]) of the same compound?
A: < 5%

Q: Which results are given for `CN(C(=O)[C@H](CCCNC(=N)N)NC(=O)c1ccccc1)[C@@H](CCCCN)C(=O)N[C@@H](C(N)=O)c1ccccc1`?
A: inhibition [1]: 36.3%; inhibition [5]: < 5%; inhibition [3]: < 5%; inhibition (Trypsin [4]): < 5%

Q: Which results are given for `N=C(N)NCCC[C@H](N[C@@H](c1ccccc1)C(F)(F)F)C(=O)N[C@@H](CCCCN)C(=O)N[C@@H](C(N)=O)c1ccccc1`?
A: inhibition [1]: 32.1%; inhibition [5]: 6%; inhibition [3]: < 5%; inhibition (Trypsin [4]): < 5%

Q: With `N=C(N)NCCCN(CC(=O)N[C@@H](CCCCN)C(=O)N[C@@H](C(N)=O)c1ccccc1)C(=O)c1ccccc1` as the compound, how does the inhibition [1] read?
A: 32.7%

Q: And the inhibition [5]?
A: 12.4%

Q: What about the inhibition [3] of the same compound?
A: < 5%

Q: And the inhibition (Trypsin [4])?
A: < 5%

Q: With `N=C(N)NCCC[C@H](NC(=O)C(=O)c1ccccc1)C(=O)N[C@@H](CCCCN)C(=O)N[C@@H](C(N)=O)c1ccccc1` as the compound, how does the inhibition [1] read?
A: 94%

Q: And the IC50 (Genome polyprotein [2])?
A: 4.1 µM

Q: And the inhibition [5]?
A: 43.2%

Q: What about the inhibition [3] of the same compound?
A: < 5%

Q: What about the inhibition (Trypsin [4]) of the same compound?
A: 33.5%

Q: What does the source list for `N=C(N)NCCC[C@@H](NC(=O)[C@@H](N)Cc1ccc(O)cc1)C(=O)N[C@@H](Cc1ccccc1)C(=O)N[C@@H](Cc1ccccc1)C(N)=O` (H-Y[dR]FF-NH2)?
A: remaining at 2 h [7]: 85%; Stability [8]: Unstable; Stability (Trypsin [9]): Stable

Q: Which results are given for `N=C(N)NCCC[C@H](NC(=O)c1ccccc1)C(=O)N[C@@H](CCCCN)C(=O)N[C@@H](C(N)=O)c1ccc(OCc2ccccc2)cc1`?
A: inhibition [1]: 100%; IC50 (Genome polyprotein [2]): 0.4 µM; inhibition [5]: 101%; IC50 (Genome polyprotein [6]): 0.8 µM; inhibition [3]: 7.8%; inhibition (Trypsin [4]): 18.4%; Stability [10]: Stable; Stability (Trypsin [9]): Stable

Q: Which inhibition [1] does the source give for `CCC(NC(=O)[C@H](CCCCN)NC(=O)[C@H](CCCNC(=N)N)NC(=O)c1ccccc1)(C(N)=O)c1ccccc1` (stereo partly drawn) here?
A: 35.2%

Q: What about the inhibition [5] of the same compound?
A: 12.1%

Q: And the inhibition [3]?
A: < 5%

Q: What about the inhibition (Trypsin [4]) of the same compound?
A: 8.7%

Q: Which results are given for `C[C@](NC(=O)[C@H](CCCCN)NC(=O)[C@H](CCCNC(=N)N)NC(=O)c1ccccc1)(C(N)=O)c1ccccc1`?
A: inhibition [1]: 99.1%; IC50 (Genome polyprotein [2]): 0.6 µM; inhibition [5]: 82.5%; IC50 (Genome polyprotein [6]): 14.3 µM; inhibition [3]: 6.5%; inhibition (Trypsin [4]): 11.8%; Stability [10]: Stable; Stability [8]: Stable; Stability (Trypsin [9]): Stable

Q: Which inhibition [1] does the source give for `N=C(N)NCCC[C@H](NC(=O)c1ccccc1)C(=O)N[C@@H](CCCCN)C(=O)N[C@@H](CC(N)=O)c1ccccc1` here?
A: 17.6%

Q: And the inhibition [5]?
A: 12.6%

Q: What about the inhibition [3] of the same compound?
A: < 5%

Q: And the inhibition (Trypsin [4])?
A: 7.5%

Q: With `N=C(N)NCCC[C@H](N[C@H](c1ccccc1)C(F)(F)F)C(=O)N[C@@H](CCCCN)C(=O)N[C@@H](C(N)=O)c1ccccc1` as the compound, how does the inhibition [1] read?
A: 43.7%

Q: What about the inhibition [5] of the same compound?
A: 24.6%

Q: What about the inhibition [3] of the same compound?
A: < 5%

Q: What about the inhibition (Trypsin [4]) of the same compound?
A: < 5%

Q: What does the source list for `N=C(N)NCCC[C@H](NC(=O)c1ccccc1)C(=O)N[C@@H](CCCCN)CC(=O)N(CC(N)=O)c1ccccc1`?
A: inhibition [1]: 22.7%; inhibition [5]: 17.7%; inhibition [3]: < 5%; inhibition (Trypsin [4]): < 5%

Q: Which results are given for `C[C@@](NC(=O)[C@H](CCCCN)NC(=O)[C@H](CCCNC(=N)N)NC(=O)c1ccccc1)(C(N)=O)c1ccccc1`?
A: inhibition [1]: 81.7%; IC50 (Genome polyprotein [2]): 9.5 µM; inhibition [5]: 47.4%; inhibition [3]: < 5%; inhibition (Trypsin [4]): 20.7%

Q: For `N=C(N)NCCC[C@H](NC(=O)c1ccccc1)C(=O)N[C@@H](CCCCN)C(=O)N(CC(N)=O)c1ccccc1`, which inhibition [1] is on record?
A: 28.9%

Q: And the inhibition [5]?
A: 19.8%

Q: What about the inhibition [3] of the same compound?
A: < 5%

Q: And the inhibition (Trypsin [4])?
A: < 5%

Q: Which inhibition [1] does the source give for `CN(C(=O)c1ccccc1)[C@@H](CCCNC(=N)N)C(=O)N[C@@H](CCCCN)C(=O)N[C@@H](C(N)=O)c1ccc(OCc2ccccc2)cc1` here?
A: 97.8%

Q: And the IC50 (Genome polyprotein [2])?
A: 1.6 µM

Q: And the inhibition [5]?
A: 92%

Q: What about the IC50 (Genome polyprotein [6]) of the same compound?
A: 7.1 µM

Q: And the inhibition [3]?
A: 5.5%

Q: And the inhibition (Trypsin [4])?
A: < 5%

Q: And the Stability [10]?
A: Stable

Q: With `CN(C(=O)c1ccccc1)[C@@H](CCCNC(=N)N)C(=O)N[C@@H](CCCCN)C(=O)N[C@@](C)(C(N)=O)c1ccccc1` as the compound, how does the inhibition [1] read?
A: 93.9%

Q: What about the IC50 (Genome polyprotein [2]) of the same compound?
A: 3 µM

Q: What about the inhibition [5] of the same compound?
A: 50.8%

Q: What about the inhibition [3] of the same compound?
A: < 5%

Q: What about the inhibition (Trypsin [4]) of the same compound?
A: 10.9%

Q: Which half-life ([10]; Sprague-Dawley, liver microsomes) does the source give for `C[C@]12CC[C@H]3[C@@H](CCC4=CC(=O)CC[C@@]43C)[C@@H]1CC[C@@H]2O` [TESTOSTERONE] here?
A: 9 to 35 min

Q: With `CN(C(=O)c1ccccc1)[C@@H](CCCNC(=N)N)C(=O)N[C@@H](CCCCN)C(=O)N[C@@H](C(N)=O)c1ccccc1` as the compound, how does the inhibition [1] read?
A: 93.6%

Q: What about the IC50 (Genome polyprotein [2]) of the same compound?
A: 3.6 µM

Q: And the inhibition [5]?
A: 48.4%

Q: And the inhibition [3]?
A: < 5%

Q: What about the inhibition (Trypsin [4]) of the same compound?
A: < 5%

Q: What about the Stability [10] of the same compound?
A: Stable

Q: What about the Stability [8] of the same compound?
A: Stable

Q: What about the Stability (Trypsin [9]) of the same compound?
A: Stable

Q: Which inhibition [1] does the source give for `N=C(N)NCCC[C@H](NC(=O)c1ccccc1)C(=O)N[C@@H](CCCCN)C(=O)N[C@@H](C(N)=O)c1ccccc1` (Bz-Arg-Lys-[dPhg]-NH2) here?
A: 99.3%

Q: And the IC50 (Genome polyprotein [2])?
A: 3.8 µM

Q: What about the inhibition [5] of the same compound?
A: 99%

Q: And the IC50 (Genome polyprotein [6])?
A: 3.8 µM

Q: And the inhibition [3]?
A: < 5%

Q: And the inhibition (Trypsin [4])?
A: 12.5%

Q: What about the Stability [10] of the same compound?
A: Stable

Q: And the half-life ([8]; alpha-chymotrypsin in phosphate buffer, pH 7.4)?
A: 11 min

Q: And the Stability (Trypsin [9])?
A: Stable

Q: For `N=C(N)NCCC[C@H](NC(=O)c1ccccc1)C(=O)N[C@@H](CCCCN)CC(=O)N[C@@H](C(N)=O)c1ccccc1`, which inhibition [1] is on record?
A: 31.8%

Q: And the inhibition [5]?
A: 14.6%

Q: And the inhibition [3]?
A: < 5%

Q: And the inhibition (Trypsin [4])?
A: < 5%

Q: For `N=C(N)NCCC[C@H](NC(=O)c1ccccc1)C(=O)N[C@@H](CCCCN)C(=O)NC(C(N)=O)(c1ccccc1)c1ccccc1`, which inhibition [1] is on record?
A: 20.6%

Q: What about the inhibition [5] of the same compound?
A: 33.3%

Q: What about the inhibition [3] of the same compound?
A: < 5%

Q: And the inhibition (Trypsin [4])?
A: 45.5%
